PMC6199744, “Development of Chemical Proteomics for the Folateome and Analysis of the Kinetoplastid Folateome” (ACS Infectious Diseases, 2018)
Several values for one entry are separate records, joined by “and”; a condition that tells them apart may be missing. Equal entries are not always repeated. Where two headings read alike, the source gives them in different places.

System: L. major lysate proteins
Experiment: Multitargeted bead mixture chemoproteomics, single concentration competition, proteome-wide
Assay type: binding

NCCCNc1ccc(C(=O)NC(CCC(=O)O)C(=O)O)cc1 (stereo not drawn) [compound 7]
fold change: 0.99 | fold change relative to vehicle control: 1.03 and 1.04 | fold change vs vehicle control: 1.19 and 1.04 and 1.12 | protein inhibition, any captured protein (Figure 8) (bead mixture, L. major lysate): no protein inhibition >30% | fold change vs vehicle control (protein CLI00016468.1 KINETOPLASTID MEMBRANE PROTEIN-11): 0.73 | fold change vs vehicle control (protein LINJ.03.0240 RIBOSOMAL PROTEIN L38, PUTATIVE): 1.02 | fold change vs vehicle control (protein LINJ.11.0780 40S RIBOSOMAL PROTEIN S21, PUTATIVE): 1.05 | fold change (protein LINJ.11.0960 40S RIBOSOMAL PROTEIN S5, vehicle control = 1): 0.98 | fold change vs vehicle control (protein LINJ.13.0990 […] SUBUNIT 2, PUTATIVE): 1.26 | fold change vs vehicle control (protein LINJ.15.0330 RIBONUCLEOPROTEIN P18, MITOCHONDRIAL PRECURSOR, PUTATIVE): 0.97 | fold change (protein LINJ.19.0090 FIBRILLARIN, PUTATIVE, vehicle control = 1): 1.04 | fold change relative to vehicle control (protein LINJ.23.0860, 3-KETOACYL-COA THIOLASE, PUTATIVE): 1.02 | fold change relative to vehicle control (protein LINJ.24.2300, 60S RIBOSOMAL PROTEIN L12, PUTATIVE): 1.04 | fold change vs vehicle control (protein LINJ.25.2230 SUCCINYL-COA SYNTHETASE ALPHA SUBUNIT, PUTATIVE): 0.97 | fold change vs vehicle control (protein LINJ.26.1630 40S RIBOSOMAL PROTEIN S33, PUTATIVE): 1.04 | fold change vs vehicle control (protein LINJ.28.1100 RIBOSOMAL PROTEIN S20, PUTATIVE): 1.02 | fold change relative to vehicle control (protein LINJ.28.1940, REPLICATION FACTOR A, 51KDA SUBUNIT, PUTATIVE): 1.1 | fold change (protein LINJ.28.2280 DYNEIN LIGHT CHAIN LC6, FLAGELLAR OUTER ARM, PUTATIVE, vehicle control = 1): 0.9 | fold change (protein LINJ.28.2870 PROTEIN PHOSPHATASE 4 CATALYTIC SUBUNIT, PUTATIVE, vehicle control = 1): 0.91 | fold change relative to vehicle control (protein LINJ.31.1600, […] OXIDASE VIII (COX VIII), PUTATIVE): 1.19 | fold change relative to vehicle control (protein LINJ.33.1730, CYCLOPHILIN 4, PUTATIVE): 1.08 | fold change vs vehicle control (protein LINJ.34.0670 PROTEASOME REGULATORY NON-ATP-ASE SUBUNIT 11, PUTATIVE,19S PROTEASOME REGULATORY SUBUNIT): 0.97 | fold change vs vehicle control (protein LINJ.36.0780 PROTEIN KINASE, PUTATIVE,MITOGEN-ACTIVATED PROTEIN KINASE, PUTATIVE): 1.26 | fold change relative to vehicle control (protein LINJ.36.3960, BASIC TRANSCRIPTION FACTOR 3A, PUTATIVE): 1.58 | fold change relative to vehicle control (protein LINJ.36.4080, HY[…], CONSERVED): 1.32 | fold change (protein LINJ.36.4180 HS1VU COMPLEX PROTEOLYTIC SUBUNIT-LIKE, vehicle control = 1): 0.93 | fold change vs vehicle control (protein LINJ.[…] LONG-CHAIN-FATTY-ACID-COA LIGASE, PUTATIVE): 0.9 | fold change (protein LMJF.01.0570 TRIC[…], PUTATIVE, vehicle control = 1): 0.92 | fold change relative to vehicle control (protein LMJF.03.0200, DELTA-1-PYRROLINE-5-CARBOXYLATE DEHYDROGENASE, PUTATIVE): 1.07 | fold change (protein LMJF.03.0230 LONG CHAIN FATTY ACYL COA SYNTHETASE, PUTATIVE, vehicle control = 1): 1 | fold change (protein LMJF.03.0980 […] 2 ALPHA SUBUNIT, PUTATIVE, vehicle control = 1): 1.01 | fold change vs vehicle control (protein LMJF.04.0630 HY[…], CONSERVED): 1.07 | fold change vs vehicle control (protein LMJF.04.1230 actin): 1.04 | fold change (protein LMJF.05.0100 PHOSPHOPROTEIN PHOSPHATASE, PUTATIVE, vehicle control = 1): 0.91 | fold change (protein LMJF.05.0280 PROTEIN TYROSINE PHOSPHATASE, PUTATIVE, vehicle control = 1): 0.99 | fold change (protein LMJF.05.0510 ATPASE ALPHA SUBUNIT, vehicle control = 1): 1.08 | fold change (protein LMJF.05.1040 STOMATIN-LIKE PROTEIN, vehicle control = 1): 0.92 | fold change (protein LMJF.06.0650 LANOSTEROL SYNTHASE, PUTATIVE, vehicle control = 1): 0.95 | fold change vs vehicle control (protein LMJF.07.0700 TOPOISOMERASE-RELATED FUNCTION PROTEIN-LIKE PROTEIN): 1.1 | fold change (protein LMJF.07.1000 RNA BINDING PROTEIN-LIKE PROTEIN, vehicle control = 1): 0.88 | fold change relative to vehicle control (protein LMJF.07.1140, PEPTIDE […] REDUCTASE-LIKE): 1.06 | fold change (protein LMJF.08.0510 RIBOSE-PHOSPHATE PYROPHOSPHOKINASE, PUTATIVE, vehicle control = 1): 0.91 | fold change vs vehicle control (protein LMJF.08.0550 TRANSLATION INITIATION FACTOR-LIKE PROTEIN): 0.9 | fold change relative to vehicle control (protein LMJF.08.1030, cathepsin L-like protease): 1.03 | fold change vs vehicle control (protein LMJF.08.1100 HYPOTHETICAL PROTEIN, CONSERVED): 0.98 | fold change vs vehicle control (protein LMJF.09.1010 HYPOTHETICAL PROTEIN, CONSERVED): 0.75 | fold change relative to vehicle control (protein LMJF.09.1120, MIT[…] BINDING PROTEIN 2,MRP2, GBP25): 1.14 | fold change vs vehicle control (protein LMJF.09.1260 HYPOTHETICAL PROTEIN, CONSERVED): 0.95 | fold change (protein LMJF.10.0210 NUCLEOLAR PROTEIN, PUTATIVE, vehicle control = 1): 1.01 | fold change vs vehicle control (protein LMJF.10.0310 PROTEIN TRANSPORT PROTEIN SEC23, PUTATIVE): 1.31 | fold change (protein LMJF.11.0590 3-[…]-COA C[…] SUBUNIT, PUTATIVE, vehicle control = 1): 1 | fold change relative to vehicle control (protein LMJF.11.0630, AMINOPEPTIDASE, PUTATIVE,METALLO-PEPTIDASE, CLAN MF, FAMILY M17): 0.94 | fold change vs vehicle control (protein LMJF.11.1050 PRETRA[…], ALPHA SUBUNIT, PUTATIVE,SEC61-LIKE (PRETRA[…]) PROTEIN, PUTATIVE): 1.07 | fold change (protein LMJF.11.1160 PROTEIN TRANSPORT PROTEIN SEC31, PUTATIVE, vehicle control = 1): 1.26 | fold change (protein LMJF.12.0030 PROTEASOME BETA-1 SUBUNIT, PUTATIVE, vehicle control = 1): 0.94 | fold change vs vehicle control (protein LMJF.12.0210 […] […]1L8 3, PUTATIVE): 0.95 | fold change relative to vehicle control (protein LMJF.12.0530, GLUCOSE-6-PHOSPHATE ISOMERASE): 1.09 | fold change (protein LMJF.12.0630 ALANINE AMINOTRANSFERASE, vehicle control = 1): 0.93 | fold change vs vehicle control (protein LMJF.13.1230 40S RIBOSOMAL PROTEIN S4, PUTATIVE): 1.05 | fold change vs vehicle control (protein LMJF.14.0310 PROTEASOME ALPHA 3 SUBUNIT, PUTATIVE): 0.96 | fold change (protein LMJF.14.0660 FATTY ACID ELONGASE, PUTATIVE, vehicle control = 1): 1.02 | fold change (protein LMJF.14.0670 FATTY ACID ELONGASE, PUTATIVE, vehicle control = 1): 0.94 | fold change vs vehicle control (protein LMJF.14.0680 FATTY ACID ELONGASE, PUTATIVE): 1.14 | fold change (protein LMJF.14.0990 ADP/ATP MIT[…]-LIKE PROTEIN, vehicle control = 1): 1.25 | fold change vs vehicle control (protein LMJF.14.1160 ENOLASE): 1.02 | fold change (protein LMJF.14.1440 HYPOTHETICAL PROTEIN, CONSERVED (cytoskeleton associated protein, putative), vehicle control = 1): 0.82
